Reference: patent US11306081B2, “Phenylacetamides as inhibitors of rock” (BRISTOL-MYERS SQUIBB COMPANY, priority 2017, dated 2022)

Target: ROCK2 (Homo sapiens (Human), UniProt O75116)
Experiment: ROCK assay (LABCHIP 3000 peptide phosphorylation assay)
Type: biochemical
Settings: 5 μM ATP, 1.5 μM peptide substrate, dose-response
Description: The effectiveness of compounds of the present invention as ROCK inhibitors can be determined in a 30 μL assay containing 20 mM HEPES, pH 7.5, 20 mM MgCl2, 0.015% Brij-35, 4 mM DTT, 5 μM ATP and 1.5 μM peptide substrate (FITC-AHA-AKRRRLSSLRA-OH) (SEQ ID No. 1). Compounds were dissolved in DMSO so that the final concentration of DMSO was <2%, and the reaction was initiated with Rho kinase variants. After incubation, the reaction was terminated by the addition of EDTA and the phosphorylated and non-phosphorylated peptides separated using a LABCHIP® 3000 Reader (Caliper Life Sciences). […] Compounds were tested in dose-response format, and the inhibition of kinase activity was calculated at each concentration of compound. The inhibition data were fit using a curve-fitting program to determine the IC50; i.e., the concentration of compound required to inhibit 50% of kinase activity.

Chain of ROCK2 (O75116 whole entry, species assumed): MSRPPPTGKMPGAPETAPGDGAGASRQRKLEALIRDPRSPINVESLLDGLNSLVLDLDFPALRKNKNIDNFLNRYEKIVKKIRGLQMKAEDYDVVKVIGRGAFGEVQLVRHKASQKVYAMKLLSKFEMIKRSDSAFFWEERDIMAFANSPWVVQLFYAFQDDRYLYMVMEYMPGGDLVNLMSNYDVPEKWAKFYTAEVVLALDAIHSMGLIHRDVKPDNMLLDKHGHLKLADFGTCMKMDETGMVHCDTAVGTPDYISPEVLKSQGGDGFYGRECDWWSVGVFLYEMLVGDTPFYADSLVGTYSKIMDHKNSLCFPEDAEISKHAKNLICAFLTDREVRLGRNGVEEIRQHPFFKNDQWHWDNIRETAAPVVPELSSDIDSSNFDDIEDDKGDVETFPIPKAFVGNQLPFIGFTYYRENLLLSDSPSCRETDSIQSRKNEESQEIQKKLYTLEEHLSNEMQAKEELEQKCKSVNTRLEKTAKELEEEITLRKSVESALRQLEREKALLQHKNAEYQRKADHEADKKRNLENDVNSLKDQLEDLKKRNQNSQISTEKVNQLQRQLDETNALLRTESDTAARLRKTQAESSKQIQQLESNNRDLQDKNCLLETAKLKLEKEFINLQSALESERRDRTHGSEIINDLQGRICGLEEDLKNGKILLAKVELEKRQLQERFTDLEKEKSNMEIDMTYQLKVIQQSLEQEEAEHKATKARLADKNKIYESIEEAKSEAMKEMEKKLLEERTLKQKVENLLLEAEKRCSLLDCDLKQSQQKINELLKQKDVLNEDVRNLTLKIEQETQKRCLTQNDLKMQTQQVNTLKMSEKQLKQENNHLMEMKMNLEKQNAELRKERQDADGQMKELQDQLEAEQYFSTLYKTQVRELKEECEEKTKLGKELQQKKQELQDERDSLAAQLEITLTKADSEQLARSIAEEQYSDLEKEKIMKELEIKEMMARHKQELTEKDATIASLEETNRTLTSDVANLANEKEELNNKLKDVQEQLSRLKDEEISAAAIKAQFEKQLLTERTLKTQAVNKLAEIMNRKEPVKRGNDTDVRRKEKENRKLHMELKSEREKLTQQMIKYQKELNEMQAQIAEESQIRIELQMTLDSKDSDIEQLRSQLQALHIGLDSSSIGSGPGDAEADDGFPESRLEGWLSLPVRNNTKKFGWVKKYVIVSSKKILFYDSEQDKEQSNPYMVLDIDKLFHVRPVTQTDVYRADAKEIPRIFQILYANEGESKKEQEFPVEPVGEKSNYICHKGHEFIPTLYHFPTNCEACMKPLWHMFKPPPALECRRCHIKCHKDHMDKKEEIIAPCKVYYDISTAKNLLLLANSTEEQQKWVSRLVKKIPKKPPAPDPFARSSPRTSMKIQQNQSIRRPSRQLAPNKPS

IC50 | SMILES
10 nM | COc1ccc2c(c1)CCc1sc(NC(=O)Cc3ccc(Oc4ncccc4C(N)=O)c(F)c3)nc1-2 [Example 001, 2-(2-fluoro-4-(2-((7-methoxy-4,5-dihydronaphtho[1,2-d]thiazol-2-yl)amino)-2-oxoethyl)phenoxy)nicotinamide]
621 nM | N#Cc1ccc2[nH]c(NC(=O)Cc3ccc(Oc4ncccc4C(N)=O)cc3)nc2c1 [Example 071, 2-(4-(2-((5-cyano-1H-benzo[d]imidazol-2-yl)amino)-2-oxoethyl)phenoxy) nicotinamide]
113 nM | CN1CCC(Oc2ccc(NC(=O)Cc3ccc(Oc4ncccc4C(N)=O)c(Cl)c3)cc2)CC1 [Example 095, 2-(2-chloro-4-(2-((4-((1-methylpiperidin-4-yl)oxy)phenyl)ami-no)-2-oxoethyl)phenoxy) nicotinamide]
7 nM | NC(=O)c1cccnc1Oc1ccc(CC(=O)Nc2nc3ccc(F)cc3n2CC2CC2)cc1Cl [Example 172, 2-(2-chloro-4-(2-((1-(cyclopropyl-methyl)-6-fluoro-1H-benzo[d]-imidazol-2-yl)-amino)-2-oxo-ethyl)phenoxy)-nicotinamide]
361 nM | NC(=O)c1cccnc1Oc1ccc(CC(=O)Nc2nnc(C3CC3)s2)cc1F [Example 092, 2-(4-(2-((5-cyclopropyl-1,3,4-thiadiazol-2-yl)amino)-2-oxoethyl)-2-fluorophenoxy)nico-tinamide]
12 nM | Cc1sc(NC(=O)Cc2ccc(Oc3ncccc3C(N)=O)c(Cl)c2)nc1-c1cccnc1F [Example 102, 2-(2-chloro-4-(2-((4-(2-fluoropyridin-3-yl)-5-methylthiazol-2-yl)amino)-2-oxoethyl)phenoxy) nicotinamide]
139 nM | COc1ccc2sc(NC(=O)Cc3ccc(Oc4ncccc4C(N)=O)c(OC)c3)nc2c1 [Example 117, 2-(2-methoxy-4-(2-((5-methoxybenzo[d]thiazol-2-yl)amino)-2-oxoethyl)phenoxy)nicotinamide]

Further lines, the molecule ahead of its results:

SMILES | IC50
Cc1sc(NC(=O)Cc2ccc(Oc3ncccc3C(N)=O)cc2)nc1-c1ccccc1 [Example 016, 2-(4-(2-((5-methyl-4-phenylthiazol-2-yl)amino)-2-oxoethyl)phenoxy) nicotinamide] | 87 nM
NC(=O)c1cccnc1Oc1ccc(CC(=O)Nc2nc3cc(-c4cnn(C(F)F)c4)ccn3n2)cc1F [Example 135, 2-(4-(2-((7-(1-(difluoro-methyl)-1H-pyrazol-4-yl)-[1,2,4]-triazolo[1,5-a]pyridin-2-yl)amino)-2-oxoethyl)-2-fluorophen-oxy)nicotin-amide] | 25 nM
Cc1sc(NC(=O)Cc2ccc(Oc3ncccc3C(N)=O)c(F)c2)nc1-c1ccccn1 [Example 087, 2-(2-fluoro-4-(2-((5-methyl-4-(pyridin-2-yl)thiazol-2-yl)amino)-2-oxoethyl)phenoxy) nicotinamide] | 47 nM
Cn1nccc1-c1ccn2nc(NC(=O)Cc3ccc(Oc4ncccc4C(N)=O)c(F)c3)nc2c1 [Example 137, 2-(2-fluoro-4-(2-((7-(1-methyl-1H-pyrazol-5-yl)-[1,2,4]-triazolo[1,5-a]pyridin-2-yl)amino)-2-oxoethyl)-phenoxy) nicotinamide] | 13 nM
CP(C)(=O)c1ccc2nc(NC(=O)Cc3ccc(Oc4ncccc4C(N)=O)c(F)c3)n(CC3CC3)c2c1 [Example 145, 2-(4-(2-((1-(cyclopropylmethyl)-6-(dimethylphosphoryl)-1H-benzo[d]imidazol-2-yl)amino)-2-oxoethyl)-2-fluorophenoxy)nicotinamide] | 133 nM
CC(C)(O)COc1ccc2nc(NC(=O)Cc3ccc(Oc4ncccc4C(N)=O)cc3)sc2c1 [Example 109, 2-(4-(2-((6-(2-hydroxy-2-methylpropoxy)benzo[d]thiazol-2-yl)amino)-2-oxoethyl)phenoxy)nicotinamide] | 74 nM
Cn1ccc(-c2ccc3sc(NC(=O)Cc4ccc(Oc5ncccc5C(N)=O)c(F)c4)nc3c2)cc1=O [Example 025, 2-(2-fluoro-4-(2-((5-(1-methyl-2-oxo-1,2-dihydropyridin-4-yl)benzo[d]thiazol-2-yl)amino)-2-oxoethyl)phenoxy)nico-tinamide] | 23 nM
Cn1cc(-c2ccc3c(c2)nc(NC(=O)Cc2ccc(Oc4ncccc4C(N)=O)c(F)c2)n3CC(F)(F)F)cn1 [Example 038, 2-(2-fluoro-4-(2-((5-(1-methyl-1H-pyrazol-4-yl)-1-(2,2,2-trifluoroethyl)-1H-benzo[d]imidazol-2-yl)amino)-2-oxoethyl)phenoxy)nico-tinamide] | 30 nM
Cc1cccc(-c2nc(NC(=O)Cc3ccc(Oc4ncccc4C(N)=O)c(F)c3)sc2C)n1 [Example 151, 2-(2-fluoro-4-(2-((5-methyl-4-(6-methylpyridin-2-yl)thiazol-2-yl)amino)-2-oxoethyl)phenoxy)nicotinamide] | 44 nM
COc1cc(CC(=O)Nc2nc3cc(OCC(C)(C)O)ccc3s2)ccc1Oc1ncccc1C(N)=O [Example 118, 2-(4-(2-((5-(2-hydroxy-2-methylpropoxy)benzo[d]thiazol-2-yl)amino)-2-oxoethyl)-2-methoxyphenoxy)nicotinamide] | 650 nM
NC(=O)c1cccnc1Oc1ccc(CC(=O)Nc2nc(-c3cccc4oc(=O)ccc34)cs2)cc1 [Example 061, 2-(4-(2-oxo-2-((4-(2-oxo-2H-chromen-5-yl)thiazol-2-yl)amino)ethyl)phe-noxy)nicotinamide] | 506 nM
Cc1nn(C)cc1-c1ccn2nc(NC(=O)Cc3ccc(Oc4ncccc4C(N)=O)c(F)c3)nc2c1 [Example 136, 2-(4-(2-((7-(1,3-dimethyl-1H-pyrazol-4-yl)-[1,2,4]-triazolo[1,5-a]pyridin-2-yl)amino)-2-oxoethyl)-2-fluorophen-oxy)nicotin-amide] | 11 nM
Cc1sc(NC(=O)Cc2ccc(Oc3ncccc3C(N)=O)c(F)c2)nc1-c1ccc(=O)n(C(F)F)c1 [Example 021, 2-(4-(2-((4-(1-(difluoromethyl)-6-oxo-1,6-dihydropyridin-3-yl)-5-methylthiazol-2-yl)amino)-2-oxoethyl)-2-fluorophenoxy)nicotinamide] | 53 nM
COC(=O)Nc1cc(-c2nc(NC(=O)Cc3ccc(Oc4ncccc4C(N)=O)c(F)c3)sc2C)ccn1 [Example 019, methyl (4-(2-(2-(4-((3-carbamoylpyridin-2-yl)oxy)-3-fluorophenyl)acetamido)-5-methylthiazol-4-yl)pyridin-2-yl)carbamate] | 49 nM
Cc1sc(NC(=O)Cc2ccc(Oc3ncccc3C(N)=O)c(F)c2)nc1-c1ccnn1C [Example 086, 2-(2-fluoro-4-(2-((5-methyl-4-(1-methyl-1H-pyrazol-5-yl)thiazol-2-yl)amino)-2-oxoethyl)phenoxy) nicotinamide] | 137 nM
COc1cccc(-c2nc(NC(=O)Cc3ccc(Oc4ncccc4C(N)=O)c(F)c3)sc2C)n1 [Example 043, 2-(2-fluoro-4-(2-((4-(6-methoxypyridin-2-yl)-5-methylthiazol-2-yl)amino)-2-oxoethyl)phenoxy)nico-tinamide] | 69.6 nM
NC(=O)c1cccnc1Oc1ccc(CC(=O)Nc2nc3cc(-c4cn[nH]c4)ccc3s2)cc1F [Example 031, 2-(4-(2-((5-(1H-pyrazol-4-yl)benzo[d]thiazol-2-yl)amino)-2-oxoethyl)-2-fluorophenoxy)nicotin-amide] | 8 nM
